Experimental data as given in PubChem BioAssay (NCI).
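Abbreviation: GI50, concentration required for 50% inhibition of growth. TGI denotes the concentration required for complete inhibition of growth.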

Tested on: RXF 393 renal
Test: NCI tumour cell line growth inhibition, 384-well format

SMILES: N#Cc1ccc(C(c2ccc(C#N)cc2)n2cncn2)cc1
- GI50: 16.8 µM
- TGI: 97.8 µM
